In US12128019B1, “Nanocomposite including abscisic acid-loaded collagen nanoparticles” (KING FAISAL UNIVERSITY, priority 2023, dated 2024):
Marks after values point to notes of the source that are not given here.

What was measured:
[1] = tested on: cardiac enzymes; troponin, LDH, and CK; assay: Biological cardiac markers in serum, MI rats; assay type: in vivo; conditions: for Cardiac enzyme levels: serum troponin, LDH, CK
Method: (§1) Four groups of rats were injected with adrenaline (2 mg/kg, s.c.) as a single dose for 2 consecutive days (24 h apart) to induce myocardial infarction (MI) while an additional rat group was used as control. Treatment of the rat groups is set forth below.
(§2) Group 1: (Control negative group): rats were injected intraperitoneally (i.p.) with physiological saline 0.2 ml/day for one week.
(§3) Group 2 (MI group): rats were injected with adrenaline (2 mg/kg, s.c.) as a single dose for 2 consecutive days (24 h apart) to induce MI.
(§4) Group 3 (MI+ABA carrying on collagen nanoparticle): rats were injected with adrenaline (2 mg/kg, s.c.) as a single dose for 2 consecutive days (24 h apart) to induce MI and ABA-loaded collagen nanoparticle were administered with adrenaline by oral gavage for one week 1 mg/kg/day of.
(§5) Group 4 (MI+Trimetazidine): rats were injected with adrenaline (2 mg/kg, s.c.) as a single dose for 2 consecutive days (24 h apart) to induce MI and Trimetazidine (Sigma, USA) was administered intraperitoneally with adrenaline at 10 mg/kg/day for one week. Trimetazidine was injected intraperitoneally in the low-dose group (10 mg/kg).
(§6) Group 5 (MI+Collagen nanoparticle) group: rats were injected with adrenaline (2 mg/kg, s.c.) as a single dose for 2 consecutive days (24 h apart) to induce MI Collagen nanoparticle was administered along with adrenaline by oral gavage for one week at 1 mg/kg/day.
(§7) Group 6 (MI+ABA carrying on collagen nanoparticle+Trimetazidine) group: rats were injected with adrenaline (2 mg/kg, s.c.) as a single dose for 2 consecutive days (24 h apart) to induce MI, and ABA-loaded collagen nanoparticle were administered (1 mg/kg/day) by oral gavage and 10 mg/kg/day with Trimetazidine administered intraperitoneally (i.p.) along with adrenaline for one week.

[2] = tested on: adrenaline-induced myocardial infarction (MI); assay: Electrocardiogram and haemodynamic assessment in adrenaline-induced MI rats; assay type: in vivo; conditions: for ECG finding: MI rats, FIGS. 3A-3E; for COP (mean) / HR (mean) / RR (interval) / ST height / carotid flow mean: rats, adrenaline 2 mg/kg s.c. on 2 consecutive days, treatment for one week
Method: as §1, §2, §3, §4, §5, §6, §7

NHSF cell line = assay: In vitro cytotoxicity and cell viability, optical microscope; assay type: cell-based
Method: On the NHSF cell line, the cytotoxic effect of ABA alone and collagen nanoparticles loaded with ABA was investigated with serial double-fold dilutions at an initial dose of 50 μMABA. ABA loaded with collagen nanoparticles was dissolved in ethanol, 0.0264 g/mL stock solutions, which were then serially diluted in a complete growth medium to make the different concentrations used in cytotoxicity assays. The cytotoxicity of each drug against the NHSF cell line was determined using an optical microscope. After a 24-hour incubation period at 37° C., exponentially developing cells were seeded in 96-well flat-bottomed microplates and subjected to drug doses for […].
After exposure of the NHSF cell line to each experimental drug, the reactions were allowed to proceed in an incubator (37° C./5% CO2/95% humidity) for 24 hours and 72 hours of time. Cell viability was recorded through an optical microscope, which is one of the methods generally used to detect cell proliferation or toxicity.
After 24 hours, cell growth rates in different types of ABA and “Marine Collagen Nanoparticles (MCNPs) with ABA were observed under an optical microscope. Cells were also cultured in media containing ethanol in an incubator (37° C./5% CO2/95% humidity) and then observed under an optical microscope.

[3] = tested on: oxidative stress markers and antioxidant enzymes; assay: Oxidative stress markers and antioxidant enzymes, cardiac contents, MI rats; assay type: in vivo; conditions: treatment for one week
Method: as §1, §2, §3, §4, §5, §6, §7
All treatment drugs improved the marker levels. NO level increased due to adrenaline administration because the role of NO in cardiovascular diseases is complex and controversial.

[4] = Body and heart weight of experimental rats; assay type: in vivo; conditions: MI rats, treatment for one week
Method: as §1, §2, §3, §4, §5
Group 5 (MI+Collagen nanoparticle) group: rats were injected with adrenaline (2 mg/kg, s.c.) as a single dose for 2 consecutive days (24 h apart) to induce MI Collagen nanoparticle was administered along with adrenaline by oral gavage for one week at 1 mg/kg/day. […]

| Compound | Cardiac enzyme levels [1] | ECG finding [2] | elevation of COP ([2]; compared to the MI group) [%] | elevation of SV ([2]; compared to the MI group) [%] | elevation of carotid blood flow ([2]; compared to the MI group) [%] | COP (mean) [2] | HR (mean) [2] | RR (interval) [2] | ST height [2] | carotid flow mean [2] | other results |
| --- | --- | --- | --- | --- | --- | --- | --- | --- | --- | --- | --- |
| CC1=CC(=O)CC(C)(C)[C@@]1(O)/C=C/C(C)=C\C(=O)O [Standard ABA, abscisic acid] | decreased toward normal | still showed pathological changes but with the ST segment nearer to the isoelectric line | 63 | 73 | 63 | 17.52 ± 0.1^b ml/min | 255.77 ± 1.23^c b/min | 0.7 ± 0.003^c sec | 39.33 ± 2.15^b mm | 17.4 ± 0.16^b ml/min | – |
| CC1=CC(=O)CC(C)(C)[C@@]1(O)/C=C/C(C)=C\C(=O)O [ABA, abscisic acid] | – | – | – | – | – | – | – | – | – | – | cell proliferation (NHSF cell line; HSFs culture, after 72 hours): marked increase of proliferation; cell morphology (NHSF cell line; NHSF cell line, after 24 hours): normal morphology of branch- and spindle-shapes |
| COc1ccc(CN2CCNCC2)c(OC)c1OC [Trimetazidine] | – | almost normal electrocardiogramith little to no elevation in the ST-segment | – | – | – | 23.9 ± 0.07^a ml/min | 254.17 ± 1.89^c b/min | 0.75 ± 0.02^a sec | 27.55 ± 0.49^c mm | 23.75 ± 0.05^a ml/min | Catalase ([3]; cardiac contents): 132.5 ± 36.08^ab U/g protein; GSH ([3]; cardiac contents): 19.59 ± 2.28ª μmol/g protein; MDA ([3]; cardiac contents): 4.4 ± 0.26^cde μmol/g protein; NO [3]: 52.22 ± 0^bc μM/g protein; CK-MB ([1]; serum, treatment for one week): 1.13 ± 0.02^bc U/L; LDH ([1]; serum, treatment for one week): 246.67 ± 12.47^d U/L; Troponin ([1]; serum, treatment for one week): 1.34 ± 0.03^d ng/ml; decrease in the ST segment elevation ([2]; compared to the MI group): ~46%; Bwt ([4]; body weight): 188 ± 1.22^bcd; Hwt ([4]; heart weight): 1.39 ± 0.03^cd |
| CC1=CC(=O)CC(C)(C)C1(O)/C=C/C(C)=C\C(=O)O (centres unmarked) [Extracted ABA, abscisic acid] | decreased toward normal | still showed pathological changes but with the ST segment nearer to the isoelectric line | 73 | 93 | 70 | 18.57 ± 1.0^b ml/min | 247.4 ± 9.69^cd b/min | 0.73 ± 0.03^b sec | 42.98 ± 4.05^b mm | 18.06 ± 1.15^b ml/min | – |
